Experiments:
cyclooxygenase-2 (COX-2) = biological target: T1, cyclooxygenase-2 (COX-2) (Homo sapiens, UniProt P35354); assay: COX fluorescent inhibitor screening assay kit (Cayman), ADHP/resorufin readout; assay type: biochemical
T1 construct: gene PTGS2
T1 sequence (P35354 18-604): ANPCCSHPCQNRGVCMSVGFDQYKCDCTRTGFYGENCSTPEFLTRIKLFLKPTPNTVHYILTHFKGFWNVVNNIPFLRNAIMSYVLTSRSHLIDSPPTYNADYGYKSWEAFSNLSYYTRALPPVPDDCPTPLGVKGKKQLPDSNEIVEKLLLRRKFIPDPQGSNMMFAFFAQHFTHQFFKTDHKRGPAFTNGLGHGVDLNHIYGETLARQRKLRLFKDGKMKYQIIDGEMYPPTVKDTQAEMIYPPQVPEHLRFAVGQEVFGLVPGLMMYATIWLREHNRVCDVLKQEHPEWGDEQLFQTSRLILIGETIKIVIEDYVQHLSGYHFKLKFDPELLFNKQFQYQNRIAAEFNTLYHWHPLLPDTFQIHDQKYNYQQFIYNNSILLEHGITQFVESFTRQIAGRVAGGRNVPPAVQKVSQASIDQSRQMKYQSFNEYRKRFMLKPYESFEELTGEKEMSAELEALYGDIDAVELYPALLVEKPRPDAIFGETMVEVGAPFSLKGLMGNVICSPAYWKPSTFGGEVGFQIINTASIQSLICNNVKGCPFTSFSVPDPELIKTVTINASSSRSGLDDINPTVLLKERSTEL

cyclooxygenase-1 (COX-1) = biological target: T2, cyclooxygenase-1 (COX-1) (Ovis aries, UniProt P05979); assay: as above; assay type: biochemical
T2 construct: gene PTGS1
T2 sequence (P05979 25-600): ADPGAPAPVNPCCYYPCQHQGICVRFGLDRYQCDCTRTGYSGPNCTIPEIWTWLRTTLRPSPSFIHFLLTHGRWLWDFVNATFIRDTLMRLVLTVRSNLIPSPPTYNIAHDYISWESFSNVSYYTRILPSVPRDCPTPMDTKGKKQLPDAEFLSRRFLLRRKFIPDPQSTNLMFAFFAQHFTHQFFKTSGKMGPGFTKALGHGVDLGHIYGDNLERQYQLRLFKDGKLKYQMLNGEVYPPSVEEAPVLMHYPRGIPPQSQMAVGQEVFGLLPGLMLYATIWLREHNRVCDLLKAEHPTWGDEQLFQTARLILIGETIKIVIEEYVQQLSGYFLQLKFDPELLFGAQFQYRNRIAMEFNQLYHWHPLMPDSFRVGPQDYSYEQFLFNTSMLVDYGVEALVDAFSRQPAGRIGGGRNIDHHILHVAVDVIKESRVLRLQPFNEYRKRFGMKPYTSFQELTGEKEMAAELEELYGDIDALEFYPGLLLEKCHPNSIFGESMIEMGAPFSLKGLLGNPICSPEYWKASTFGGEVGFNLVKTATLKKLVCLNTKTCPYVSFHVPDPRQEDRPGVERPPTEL

IC50 (cyclooxygenase-2 (COX-2)): 0.17 µM
IC50 (cyclooxygenase-1 (COX-1)): 10.8 ± 1.12 µM
Structure (SMILES): COc1cc(O)c2c(c1)CCc1cc(O)ccc1-2 [lusianthridin]
